Laboratory results as given in ChEMBL document CHEMBL4610074, “Somuncurins: Bioactive Peptides from the Skin of the Endangered Endemic Patagonian Frog Pleurodema somuncurense” (J Nat Prod, 2020).
Calls of active or inactive are those of the source. The rule behind the calls is not given here.

How the values were obtained:
[1] = test system: Lipid bilayer; assay: Induction of membrane disruption in Escherichia coli lipid extract large unilamellar vesicles assessed as carboxyfluorescein leakage at 640 ug/ml by fluorescence assay; format: functional
[2] = test system: Lipid bilayer; assay: Binding affinity to Escherichia coli lipid extract large unilamellar vesicles incubated for 30 mins by laser-doppler technique
[3] = test system: Escherichia coli; assay: Antibacterial activity against Escherichia coli ATCC 25922 incubated for 24 hrs under aerobic condition; format: functional; conditions: ATCC 25922, 24 h
[4] = test system: Staphylococcus aureus; assay: Antibacterial activity against Staphylococcus aureus ATCC 29213 incubated for 24 hrs under aerobic condition; format: functional; conditions: ATCC 29213, 24 h
[5] = test system: Lipid bilayer; assay: Induction of membrane disruption in PC/bovine brain SPM/cholesterol large unilamellar vesicles assessed as carboxyfluorescein leakage at 640 ug/ml by fluorescence assay
[6] = test system: Lipid bilayer; assay: Induction of rearrangement in Escherichia coli lipid extract large unilamellar vesicles assessed as altered colloidal property at 140 ug/ml to 640 ug/ml by dynamic light scattering analysis; format: functional
[7] = Cytotoxicity against human MDM cells after 24 hrs by resazurin dye based fluorescence assay; format: cell-based
[8] = test system: Lipid bilayer; assay: Induction of pore formation in Escherichia coli lipid extract giant unilamellar vesicles at 640 ug/ml after 25 mins by fluorescence confocal microscopy; format: functional
[9] = test system: Lipid bilayer; assay: Induction of lipid aggregation in PC/bovine brain SPM/cholesterol large unilamellar vesicles at 140 ug/ml to 640 ug/ml by dynamic light scattering analysis
[10] = test system: Lipid bilayer; assay: Binding affinity to Escherichia coli lipid extract large unilamellar vesicles assessed as change in tryptophan emission Spectra incubated for 30 mins by spectrofluorometric method
[11] = test system: Lipid bilayer; assay: Induction of lipid aggregation in Escherichia coli lipid extract large unilamellar vesicles at 270 ug/ml by dynamic light scattering analysis; format: functional
[12] = test system: Lipid bilayer; assay: Induction of membrane disruption in Escherichia coli lipid extract large unilamellar vesicles assessed as carboxyfluorescein leakage at 250 ug/ml by fluorescence assay; format: functional
[13] = Effect on LPS-induced ROS production in human CHME3 cells measured for 30 mins by microscopic method; format: ADME, cell-based; conditions: 0.5 h
[14] = (§1) Hemolytic activity in human RBC at 180 uM measured after 1 hr relative to control; format: ADME, cell-based, Erythrocyte; conditions: red blood cells (erythrocytes), read-out: Activity
[15] = test system: Erythrocyte; assay: as §1; format: ADME, cell-based; conditions: erythrocyte, 1 h, 180 µM

Substance | Activity [2] [mV] | MIC [3] | MIC [4] | Activity [7] | further results
H-FIIWPLRYRK-NH2 | 36 | 180 µM | 360 µM | Non-Toxic | Activity [1]: 100%; Activity [5]: 20%; Activity [6]: Active; Activity [8]: inactive; Activity [9]: Non-Toxic; Activity [10]: inactive; Activity [11]: Active; Activity [12]: Active; Activity [13]: Non-Toxic; hemolysis at 1 h, 180 µM [14]: < 5%
H-YYQVSEERRRDLASLARLYALAR-NH2 |  | > 700 µg/mL | > 700 µg/mL |  | 
H-DLLNGLLNPVLGIANGLTGGLVKK-NH2 |  | > 700 µg/mL | > 700 µg/mL |  | 
H-NLVGSLLGGILKK-NH2 | 18 | 460 µM | > 700 µg/mL | Non-Toxic | Activity [15]: Non-Toxic
H-DLASLARLYALAR-NH2 |  | > 700 µg/mL | > 700 µg/mL |  | 

Continued, in another order:

Activity [2] [mV] | MIC [3] | MIC [4] | Substance | Activity [7] | further results
 | > 700 µg/mL | > 700 µg/mL | H-NNEENELRRRVSFNRAVIHSLLG-NH2 |  | 
 | > 700 µg/mL | > 700 µg/mL | H-VSFNRAVIHSLLG-NH2 |  | 
23 | 410 µM | > 700 µg/mL | H-FILKRSYPQYY-NH2 | Non-Toxic | Activity [13]: Non-Toxic; Activity [15]: Non-Toxic
